Results reported in publication PMC7531004, “Discovery of gramicidin A analogues with altered activities by multidimensional screening of a one-bead-one-compound library” (Nature Communications, 2020).
Where a SMILES comes first, the peptide text is derived from it. [ ]: non-standard residue; d: D form. The star is where a group is joined. NHCH2CH2OH = OCCN*; For = O=C*

Legend:
[1] = H+/Na+ transport assay of bead-derived peptides (one-point); assay type: biochemical; parameters: key: relative activity; mean of two control wells = 1.00; settings: bead-derived peptide solution, EYPC/EYPG LUVs;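 further: relative to parent gramicidin A activity set to 1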
Summary of the method: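 One-point screen: peptide + pyranine-loaded LUVs, 30 min RT with vortexing, 96-well. Read-out is fluorescence intensity scaled as 100 × (Ix – I0)/(Imax – I0). Imax from Triton X-100, I0 from untreated vesicles, and the mean of the two control wells is set to 1.00.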

[2] = cell viability/%
Summary of the method: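 First, library peptide stocks are diluted 250-fold in RPMI1640 with 10% heat-inactivated FBS. Next, they are mixed with P388 cells to give 1 × 10^4 cells/mL and incubated 92 h at 37 °C, 5% CO2. Finally, viability (%) is scored by WST-1 absorbance at 415 nm.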

[3] = system: Streptococcus pyogenes SSI-9; assay: Antibacterial activity assay of bead-derived peptides (three concentrations); assay type: cell-based; parameters: key: +++: inhibition by the 640-fold diluted peptide solution; ++: inhibition by the 160-fold diluted solution; +: inhibition by the 40-fold diluted solution; -: no inhibition; settings: S. pyogenes, bead-derived peptide solution, three concentrations
Summary of the method: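 Three stock dilutions per peptide (none, 4-fold, 16-fold in DMSO) are screened in 96-well format. The medium is blood-supplemented cation-adjusted MHB, inoculated with 2 × 10^5 CFU S. pyogenes SSI-9. Growth is read as cell precipitation at 18 h, 37 °C.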

Question: With `CC(C)C[C@@H](NC(=O)[C@H](C)NC(=O)[C@H](NC(=O)[C@H](C)NC(=O)CNC(=O)[C@@H](NC=O)C(C)C)[C@H](C)O)C(=O)N[C@H](C(=O)N[C@@H](C(=O)N[C@@H](Cc1c[nH]c2ccccc12)C(=O)N[C@@H](C(=O)N[C@@H](Cc1c[nH]c2ccccc12)C(=O)N[C@@H](C(=O)N[C@@H](Cc1c[nH]c2ccccc12)C(=O)N[C@H](CC(C)C)C(=O)N[C@@H](Cc1c[nH]c2ccccc12)C(=O)NCCO)C(C)C)[C@H](C)O)C(C)C)C(C)C` [compound 7225] (For-VGA[dT]A[dL]V[dV]W[dT]W[dV]W[dL]W-NHCH2CH2OH) as the compound, how does the “H+/Na+ transport activity normalized against the value of 1 (1.00)” value (“H+/Na+ transport activity normalized” below) [1] read?
Answer: The value was 1.14.

Question: What about the viability [2] of the same compound?
Answer: The viability was 100%.

Question: What about the antibacterial activity [3] of the same compound?
Answer: Its antibacterial activity is “-”.

Question: Which “H+/Na+ transport activity normalized” value [1] does the source give for `CC(C)C[C@@H](NC(=O)[C@H](C)NC(=O)CNC(=O)[C@@H](NC=O)C(C)C)C(=O)N[C@@H](C)C(=O)N[C@@H](C(=O)N[C@H](C(=O)N[C@H](CC(C)C)C(=O)N[C@@H](Cc1c[nH]c2ccccc12)C(=O)N[C@H](CC(C)C)C(=O)N[C@@H](Cc1c[nH]c2ccccc12)C(=O)N[C@@H](C(=O)N[C@@H](Cc1c[nH]c2ccccc12)C(=O)N[C@@H](C(=O)N[C@@H](Cc1c[nH]c2ccccc12)C(=O)NCCO)[C@H](C)O)C(C)C)C(C)C)[C@H](C)O` [compound 113] (For-VGA[dL]A[dT]V[dL]W[dL]W[dV]W[dT]W-NHCH2CH2OH) here?
Answer: Its value is 1.00.

Question: What about the viability [2] of the same compound?
Answer: Its viability is 100%.

Question: And the antibacterial activity [3]?
Answer: The antibacterial activity was “-”.

Question: What does the source list for `CC(C)C[C@@H](NC(=O)[C@H](C)NC(=O)CNC(=O)[C@@H](NC=O)C(C)C)C(=O)N[C@@H](C)C(=O)N[C@@H](C(=O)N[C@H](C(=O)N[C@@H](C(=O)N[C@@H](Cc1c[nH]c2ccccc12)C(=O)N[C@H](CC(C)C)C(=O)N[C@@H](Cc1c[nH]c2ccccc12)C(=O)N[C@@H](C(=O)N[C@@H](Cc1c[nH]c2ccccc12)C(=O)N[C@@H](C(=O)N[C@@H](Cc1c[nH]c2ccccc12)C(=O)NCCO)C(C)C)C(C)C)C(C)C)C(C)C)[C@H](C)O` [compound 6549] (For-VGA[dL]A[dT]V[dV]W[dL]W[dV]W[dV]W-NHCH2CH2OH)?
Answer: H+/Na+ transport activity normalized against the value of 1 (1.00) [1]: 1.07; viability [2]: 100%; antibacterial activity [3]: -

Question: Which “H+/Na+ transport activity normalized” value [1] does the source give for `CNC(=O)C[C@@H](NC(=O)[C@H](Cc1c[nH]c2ccccc12)NC(=O)[C@@H](CC(C)C)NC(=O)[C@H](Cc1c[nH]c2ccccc12)NC(=O)[C@@H](CC(C)C)NC(=O)[C@@H](NC(=O)[C@@H](CC(C)C)NC(=O)[C@H](C)NC(=O)[C@@H](CC(C)C)NC(=O)[C@H](C)NC(=O)CNC(=O)[C@@H](NC=O)C(C)C)C(C)C)C(=O)N[C@@H](Cc1c[nH]c2ccccc12)C(=O)N[C@@H](C(=O)N[C@@H](Cc1c[nH]c2ccccc12)C(=O)NCCO)[C@H](C)O` [compound 3773] (For-VGA[dL]A[dL]V[dL]W[dL]W[dD](NHMe)W[dT]W-NHCH2CH2OH) here?
Answer: Its value is 1.03.

Question: And the viability [2]?
Answer: The viability was 100%.

Question: What about the antibacterial activity [3] of the same compound?
Answer: The antibacterial activity was “-”.

Question: Which “H+/Na+ transport activity normalized” value [1] does the source give for `CC(C)C[C@@H](NC(=O)[C@H](C)NC(=O)CNC(=O)[C@@H](NC=O)C(C)C)C(=O)N[C@@H](C)C(=O)N[C@@H](C(=O)N[C@H](C(=O)N[C@@H](C(=O)N[C@@H](Cc1c[nH]c2ccccc12)C(=O)N[C@@H](C(=O)N[C@@H](Cc1c[nH]c2ccccc12)C(=O)N[C@H](CC(C)C)C(=O)N[C@@H](Cc1c[nH]c2ccccc12)C(=O)N[C@@H](C(=O)N[C@@H](Cc1c[nH]c2ccccc12)C(=O)NCCO)C(C)C)[C@H](C)O)[C@H](C)O)C(C)C)C(C)C` [compound 5747] (For-VGA[dL]A[dV]V[dT]W[dT]W[dL]W[dV]W-NHCH2CH2OH) here?
Answer: Its value is 1.09.

Question: And the viability [2]?
Answer: The viability was 100%.

Question: What about the antibacterial activity [3] of the same compound?
Answer: The antibacterial activity was “-”.

Question: What does the source list for `CC(C)C[C@@H](NC(=O)[C@H](Cc1c[nH]c2ccccc12)NC(=O)[C@H](NC(=O)[C@H](Cc1c[nH]c2ccccc12)NC(=O)[C@H](NC(=O)[C@H](Cc1c[nH]c2ccccc12)NC(=O)[C@H](NC(=O)[C@@H](NC(=O)[C@H](NC(=O)[C@H](C)NC(=O)[C@H](NC(=O)[C@H](C)NC(=O)CNC(=O)[C@@H](NC=O)C(C)C)[C@H](C)O)C(C)C)C(C)C)C(C)C)C(C)C)C(C)C)C(=O)N[C@@H](Cc1c[nH]c2ccccc12)C(=O)NCCO` [compound 6606] (For-VGA[dT]A[dV]V[dV]W[dV]W[dV]W[dL]W-NHCH2CH2OH)?
Answer: H+/Na+ transport activity normalized against the value of 1 (1.00) [1]: 1.03; viability [2]: 100%; antibacterial activity [3]: -

Question: Which “H+/Na+ transport activity normalized” value [1] does the source give for `CNC(=O)C[C@@H](NC(=O)[C@H](Cc1c[nH]c2ccccc12)NC(=O)[C@@H](CC(C)C)NC(=O)[C@H](Cc1c[nH]c2ccccc12)NC(=O)[C@@H](CC(C)C)NC(=O)[C@H](Cc1c[nH]c2ccccc12)NC(=O)[C@H](NC(=O)[C@@H](NC(=O)[C@H](NC(=O)[C@H](C)NC(=O)[C@H](NC(=O)[C@H](C)NC(=O)CNC(=O)[C@@H](NC=O)C(C)C)C(C)C)C(C)C)C(C)C)C(C)C)C(=O)N[C@@H](Cc1c[nH]c2ccccc12)C(=O)NCCO` [compound 7049] (For-VGA[dV]A[dV]V[dV]W[dL]W[dL]W[dD](NHMe)W-NHCH2CH2OH) here?
Answer: Its value is 1.10.

Question: And the viability [2]?
Answer: Its viability is 100%.

Question: And the antibacterial activity [3]?
Answer: Its antibacterial activity is “-”.

Question: Which “H+/Na+ transport activity normalized” value [1] does the source give for `CNC(=O)C[C@@H](NC(=O)[C@H](C)NC(=O)CNC(=O)[C@@H](NC=O)C(C)C)C(=O)N[C@@H](C)C(=O)N[C@@H](C(=O)N[C@H](C(=O)N[C@@H](C(=O)N[C@@H](Cc1c[nH]c2ccccc12)C(=O)N[C@H](CC(C)C)C(=O)N[C@@H](Cc1c[nH]c2ccccc12)C(=O)N[C@H](CC(C)C)C(=O)N[C@@H](Cc1c[nH]c2ccccc12)C(=O)N[C@@H](C(=O)N[C@@H](Cc1c[nH]c2ccccc12)C(=O)NCCO)C(C)C)C(C)C)C(C)C)C(C)C` [compound 11200] (For-VGA[dD](NHMe)A[dV]V[dV]W[dL]W[dL]W[dV]W-NHCH2CH2OH) here?
Answer: The value was 1.06.

Question: What about the viability [2] of the same compound?
Answer: Its viability is 66%.

Question: What about the antibacterial activity [3] of the same compound?
Answer: Its antibacterial activity is “-”.

Question: With `CNC(=O)C[C@@H](NC(=O)[C@@H](NC(=O)[C@H](NC(=O)[C@H](C)NC(=O)[C@@H](CC(C)C)NC(=O)[C@H](C)NC(=O)CNC(=O)[C@@H](NC=O)C(C)C)C(C)C)C(C)C)C(=O)N[C@@H](Cc1c[nH]c2ccccc12)C(=O)N[C@H](CC(C)C)C(=O)N[C@@H](Cc1c[nH]c2ccccc12)C(=O)N[C@H](CC(C)C)C(=O)N[C@@H](Cc1c[nH]c2ccccc12)C(=O)N[C@@H](C(=O)N[C@@H](Cc1c[nH]c2ccccc12)C(=O)NCCO)C(C)C` [compound 7204] (For-VGA[dL]A[dV]V[dD](NHMe)W[dL]W[dL]W[dV]W-NHCH2CH2OH) as the compound, how does the “H+/Na+ transport activity normalized” value [1] read?
Answer: The value was 1.17.

Question: And the viability [2]?
Answer: The viability was 100%.

Question: What about the antibacterial activity [3] of the same compound?
Answer: Its antibacterial activity is “-”.

Question: Which “H+/Na+ transport activity normalized” value [1] does the source give for `CC(C)C[C@@H](NC(=O)[C@H](C)NC(=O)CNC(=O)[C@@H](NC=O)C(C)C)C(=O)N[C@@H](C)C(=O)N[C@@H](C(=O)N[C@H](C(=O)N[C@@H](C(=O)N[C@@H](Cc1c[nH]c2ccccc12)C(=O)N[C@@H](C(=O)N[C@@H](Cc1c[nH]c2ccccc12)C(=O)N[C@H](CC(C)C)C(=O)N[C@@H](Cc1c[nH]c2ccccc12)C(=O)N[C@@H](C(=O)N[C@@H](Cc1c[nH]c2ccccc12)C(=O)NCCO)C(C)C)[C@H](C)O)C(C)C)C(C)C)C(C)C` [compound 5657] (For-VGA[dL]A[dV]V[dV]W[dT]W[dL]W[dV]W-NHCH2CH2OH) here?
Answer: Its value is 1.09.

Question: What about the viability [2] of the same compound?
Answer: The viability was 81.3%.

Question: And the antibacterial activity [3]?
Answer: Its antibacterial activity is “-”.

Question: For `CC(C)C[C@@H](NC(=O)[C@H](C)NC(=O)[C@H](NC(=O)[C@H](C)NC(=O)CNC(=O)[C@@H](NC=O)C(C)C)C(C)C)C(=O)N[C@H](C(=O)N[C@@H](C(=O)N[C@@H](Cc1c[nH]c2ccccc12)C(=O)N[C@@H](C(=O)N[C@@H](Cc1c[nH]c2ccccc12)C(=O)N[C@@H](C(=O)N[C@@H](Cc1c[nH]c2ccccc12)C(=O)N[C@@H](C(=O)N[C@@H](Cc1c[nH]c2ccccc12)C(=O)NCCO)C(C)C)[C@H](C)O)C(C)C)C(C)C)C(C)C` [compound 4258] (For-VGA[dV]A[dL]V[dV]W[dV]W[dT]W[dV]W-NHCH2CH2OH), which “H+/Na+ transport activity normalized” value [1] is on record?
Answer: Its value is 1.00.

Question: What about the viability [2] of the same compound?
Answer: The viability was 85.9%.

Question: And the antibacterial activity [3]?
Answer: Its antibacterial activity is “-”.
